We go through 19 molecules from patent US20230303575A1, “FGFR AND MUTATION INHIBITOR THEREOF, PREPARATION METHOD THEREFOR AND USE THEREOF” (Abbisko Therapeutics Co., Ltd., priority 2020, published 2023).

Structures are written as SMILES. Where only a bound is given, the exact number is not on record here.

The target in one test is T1, FGFR2 V564F (Homo sapiens, UniProt P21802, V564F).
T1 construct: P41212 (Transcription factor ETV6)
Description: Cell proliferation assay for Tel-FGFR2 V564F in BaF3. The class given is cell-based. The following applies: BaF3 cells expressing FGFR2 V564F fusion, 48 hrs, CellTiter Glo. The protocol:
By transfection, cell strains of the intracellular kinase domain fusion protein of TEL-FGFR2 WT or the intracellular domain fusion proteins containing FGFR2 V564, V564F, V564L, N549K and K659M mutations were stably expressed in Baf cells. On day 1, the cell suspension was plated into a 96-well plate containing growth medium (DMEM containing 1% Glutamax, 10% FBS and 1% Pen/Strep) at 2000-4000 cells/90 μL/per well, and then the mixture was incubated overnight at 37° C. and 5% CO2. On day 2, 10 μL of growth medium containing a 10-fold stock solution of test compound was added to the cell culture (9 dose points, 3× serial dilution, starting from 1 μM, finally 0.3% DMSO). After incubation at 37° C. and 5% CO2 for 48 hrs, 50 μL of CellTiter Glo (CTG) reagent was added to the cell-containing 96-well plate on day 3, and the plate was then incubated at room temperature for 10 min. Then relative light units (RLUs) were measured on a microplate reader with a luminescence detection module. RLU values were normalized to % survival, and concentration-response curves were plotted using Prism to calculate IC50 (nM).

In another test the target is T2, FGFR3 V555M (Homo sapiens, UniProt P22607, V555M).
T2 construct: P41212 (Transcription factor ETV6)
T2 sequence (P22607 472-761 V555M limits assumed): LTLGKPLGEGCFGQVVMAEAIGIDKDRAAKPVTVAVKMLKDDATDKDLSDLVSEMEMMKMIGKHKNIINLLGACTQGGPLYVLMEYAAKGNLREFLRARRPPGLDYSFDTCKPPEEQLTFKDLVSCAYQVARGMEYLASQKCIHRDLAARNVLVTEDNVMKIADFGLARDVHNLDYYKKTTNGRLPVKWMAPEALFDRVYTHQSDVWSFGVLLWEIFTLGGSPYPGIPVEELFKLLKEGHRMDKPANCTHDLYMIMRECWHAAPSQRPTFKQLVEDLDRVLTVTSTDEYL
Nature of the test: Cell proliferation assay for FGFR3 V555M in BaF3. The class given is cell-based. The following applies: BaF3 cells expressing FGFR3 V555M fusion, 48 hrs, CellTiter Glo. The protocol: For the compounds of the Examples of the present invention, cell strains of TEL-FGFR3 WT intracellular kinase domain fusion protein or intracellular domain fusion protein containing FGFR3 V555M or FGFR3 N540K mutation were stably expressed in Baf cells by transfection and were used to determine the cell proliferation effect of BaF3-Tel-FGFR3 WT. FGFR3 V555M or FGFR3 N540K. The specific test process was as follows: • 1) The cell suspension was plated into a 96-well plate containing growth medium (DMEM containing 1% Glutamax, 10% FBS and 1% Pen/Strep) at 2000-4000 cells/90 μL/per well, and then the mixture was incubated overnight at 37° C. and 5% CO2. • 2) 10 μL of growth medium containing a 10-fold stock solution of test compound was added to the cell culture (9 dose points, 3× serial dilution, starting from 1 μM, finally 0.3% DMSO). • 3) The mixture was incubated at 37° C. and 5% CO2 for 48 hrs. • 4) 50 μL of CellTiter Glo (CTG) reagent was added to the cell-containing 96-well plate, and the plate was then incubated at room temperature for 10 min. • 5) Relative light units (RLUs) were measured on a microplate reader with a luminescence detection module. RLU values were normalized to % survival, and concentration-response curves were plotted using Prism to calculate IC50 (nM).
On the technique in general: In ATP-based viability assays light output follows the ATP content of the culture.

T1 sequence (P21802 481-770 V564F limits assumed): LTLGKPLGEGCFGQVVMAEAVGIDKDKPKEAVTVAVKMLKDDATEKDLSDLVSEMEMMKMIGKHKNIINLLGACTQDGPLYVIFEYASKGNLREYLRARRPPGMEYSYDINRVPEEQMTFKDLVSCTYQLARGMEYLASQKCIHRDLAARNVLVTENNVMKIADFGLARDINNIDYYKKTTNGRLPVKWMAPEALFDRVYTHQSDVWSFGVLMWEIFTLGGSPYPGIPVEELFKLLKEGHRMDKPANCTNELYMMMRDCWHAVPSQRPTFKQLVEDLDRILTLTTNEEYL

One may read the IC50 as the concentration that gives 50% inhibition. Read a low IC50 as inhibition by little substance. In turn, `C=CC(=O)N1CC[C@H](n2cc(C#Cc3ccc4oc(C(C)C)nc4c3)c3c(N)ncnc32)C1` [Example 4, (S)-1-(3-(4-amino-5-((2-isopropylbenzo[d]oxazol-5-yl)ethynyl)-7H-pyrrolo[2,3-d]pyrimidin-7-yl)pyrrolidin-1-yl)prop-2-en-1-one] yielded an IC50 against FGFR2 V564F of 0.5 to 5 nM.
`C=CC(=O)N1CC[C@H](n2cc(C#Cc3ccc4oc(C5CCC5)nc4c3)c3c(N)ncnc32)C1` [Example 5, (S)-1-(3-(4-amino-5-((2-cyclobutylbenzo[d]oxazol-5-yl)ethynyl)-7H-pyrrolo [2,3-d]pyrimidin-7-yl)pyrrolidin-1-yl)prop-2-en-1-one]: at FGFR2 V564F, the IC50 lay in the range of 0.5 to 5 nM.
Turning to `C=CC(=O)N1CC[C@H](n2nc(C#Cc3cc4nc(NC)oc4cc3F)c3c(N)ncnc32)C1` [Example 29, (S)-1-(3-(4-amino-3-((6-fluoro-2-(methylamino)benzo[d]oxazol-5-yl)ethynyl)-1H-pyrazolo[3,4-d]pyrimidin-1-yl)pyrrolidin-1-yl) prop-2-en-1-one], the IC50 against FGFR2 V564F lay within 0.5 to 5 nM; against FGFR3 V555M, 5 to 50 nM.
For `C=CC(=O)N1CC[C@H](n2nc(C#Cc3cc4nc(NCC)oc4cc3F)c3c(N)ncnc32)C1` [Example 30, (S)-1-(3-(4-amino-3-((2-(ethylamino)-6-fluorobenzo [d]oxazol-5-yl)ethynyl)-1H-pyrazolo[3,4-d]pyrimidin-1-yl)pyrrolidin-1-yl) prop-2-en-1-one], in that order: 0.5 to 5 nM and 5 to 50 nM.
For `C=CC(=O)N1CC[C@H](n2nc(C#Cc3cc4nc(N(C)C)oc4cc3F)c3c(N)ncnc32)C1` [Example 31, (S)-1-(3-(4-amino-3-((2-(dimethylamino)-6-fluoro-benzo[d]oxazol-5-yl)ethynyl)-1H-pyrazolo[3,4-d]pyrimidin-1-yl)pyrrolidin-1-yl)prop-2-en-1-one], in that order: 0.5 to 5 nM and 5 to 50 nM.
As to `C=CC(=O)N1CC[C@H](n2nc(C#Cc3cc4nc(NC5CC5)oc4cc3F)c3c(N)ncnc32)C1` [Example 33, (S)-1-(3-(4-amino-3-((2-(cyclopropylamino)-6-fluorobenzo[d]oxazol-5-yl)ethynyl)-1H-pyrazolo[3,4-d]pyrimidin-1-yl)pyrrolidin-1-yl)prop-2-en-1-one], the IC50 on FGFR2 V564F is 0.5 to 5 nM; at FGFR3 V555M, 50 to 500 nM.
The like results for `C=CC(=O)N1CC[C@H](n2nc(C#Cc3cc4nc(N5CCC5)oc4cc3F)c3c(N)ncnc32)C1` [Example 34, (S)-1-(3-(4-amino-3-((2-(azetidin-1-yl)-6-fluorobenzo [d]oxazol-5-yl)ethynyl)-1H-pyrazolo[3,4-d]pyrimidin-1-yl)pyrrolidin-1-yl) prop-2-en-1-one] were, in that order, 0.5 to 5 nM and 0.5 to 5 nM.
For `C=CC(=O)N1CC[C@H](n2nc(C#Cc3cc4nc(C5CC5)oc4cc3F)c3c(N)ncnc32)C1` [Example 35, (S)-1-(3-(4-amino-3-((2-cyclopropyl-6-fluorobenzo [d]oxazol-5-yl)ethynyl)-1H-pyrazolo[3,4-d]pyrimidin-1-yl)pyrrolidin-1-yl) prop-2-en-1-one], in that order: not above 0.5 nM and 0.5 to 5 nM.
The like results for `C=CC(=O)N1CC[C@H](n2nc(C#Cc3cc4nc(C5CCC5)oc4cc3F)c3c(N)ncnc32)C1` [Example 38, (S)-1-(3-(4-amino-3-((2-cyclobutyl-6-fluorobenzo [d]oxazol-5-yl)ethynyl)-1 H-pyrazolo[3,4-d]pyrimidin-1-yl)pyrrolidin-1-yl) prop-2-en-1-one] were, in that order, 0.5 to 5 nM and 5 to 50 nM.
In the case of `C=CC(=O)N1CC[C@H](n2nc(C#Cc3ccc4oc(C5(C)CC5)nc4c3)c3c(N)ncnc32)C1` [Example 39, (S)-1-(3-(4-amino-3-((2-(1-methylcyclopropyl)benzo [d]oxazol-5-yl)ethynyl)-1H-pyrazolo[3,4-d]pyrimidin-1-yl)pyrrolidin-1-yl) prop-2-en-1-one], the IC50 on FGFR2 V564F fell in the range of 0.5 to 5 nM.
Molecule `C=CC(=O)N1CC[C@H](n2cc(C#Cc3ccc4sc(C5CC5)nc4c3)c3c(N)ncnc32)C1` [Example 43, (S)-1-(3-(4-amino-5-((2-cyclopropylbenzo[d]thiazol-5-yl)ethynyl)-7H-pyrrolo [2,3-d]pyrimidin-7-yl)pyrrolidin-1-yl)prop-2-en-1-one] gave an IC50 against FGFR2 V564F of 0.5 to 5 nM.
For `C=CC(=O)N1CC[C@H](n2cc(C#Cc3cc4nc(C)sc4cc3F)c3c(N)ncnc32)C1` [Example 47, (S)-1-(3-(4-amino-5-((6-fluoro-2-methylbenzo[d]thiazol-5-yl)ethynyl)-7H-pyrrolo[2,3-d]pyrimidin-7-yl)pyrrolidin-1-yl)prop-2-en-1-one], the IC50 against FGFR2 V564F was not above 0.5 nM; against FGFR3 V555M, 5 to 50 nM.
For `C=CC(=O)N1CC[C@H](n2cc(C#Cc3cc4nc(C(F)F)sc4cc3F)c3c(N)ncnc32)C1` [Example 50, (S)-1-(3-(4-amino-5-((2-(difluoromethyl)-6-fluoro-benzo[d]thiazol-5-yl)ethynyl)-7H-pyrrolo[2,3-d]pyrimidin-7-yl)pyrrolidin-1-yl) prop-2-en-1-one], in that order: 0.5 to 5 nM and 5 to 50 nM.
With `C=CC(=O)N1CC[C@H](n2nc(C#Cc3cc4nc(C(F)F)sc4cc3F)c3c(N)ncnc32)C1` [Example 60, (S)-1-(3-(4-amino-3-((2-(difluoromethyl)-6-fluoro-benzo[d]thiazol-5-yl)ethynyl)-1H-pyrazolo[3,4-d]pyrimidin-1-yl)pyrrolidin-1-yl)prop-2-en-1-one], the IC50 against FGFR2 V564F was 0.5 to 5 nM.
In the case of `C=CC(=O)N1CCC(c2cc(C#Cc3ccc4oc(C5CC5)nc4c3)c3c(N)ncnn23)C1` (stereo not shown) [Example 63, 1-(3-(4-amino-5-((2-cyclo-propylbenzo[d]oxazol-5-yl)ethynyl)pyrrolo[2,1-f][1,2,4]triazin-7-yl)pyrrolidin-1-yl)prop-2-en-1-one], the 50% inhibitory concentration (IC50) was 0.5 to 5 nM on FGFR2 V564F and 5 to 50 nM at FGFR3 V555M.
Turning to `C=CC(=O)N1CC[C@H](n2cc(C#Cc3cc4nc(C5CC5)oc4cc3F)c3c(N)ncnc32)C1` [Example 65, (S)-1-(3-(4-amino-5-((2-cyclopropyl-6-fluorobenzo [d]oxazol-5-yl)ethynyl)-7H-pyrrolo[2,3-d]pyrimidin-7-yl)pyrrolidin-1-yl)prop-2-en-1-one], the IC50 against FGFR2 V564F is not above 0.5 nM; against FGFR3 V555M, 0.5 to 5 nM.
`C=CC(=O)N1CCC(c2cc(C#Cc3ccc4sc(C)nc4c3)c3c(N)ncnn23)C1` (stereo not shown) [Example 70, 1-(3-(4-amino-5-((2-methyl-benzo[d]thiazol-5-yl)ethynyl)pyrrolo[2,1-f][1,2,4]triazin-7-yl)pyrrolidin-1-yl) prop-2-en-1-one] showed an IC50 against FGFR2 V564F of 0.5 to 5 nM.
Regarding `C=CC(=O)N1CC[C@H](n2cc(C#Cc3cc4nc(C(F)(F)F)oc4cc3F)c3c(N)ncnc32)C1` [Example 72, (S)-1-(3-(4-amino-5-((6-fluoro-2-(trifluoromethyl)benzo[d]oxazol-5-yl)ethynyl)-7H-pyrrolo[2,3-d]pyrimidin-7-yl)pyrrolidin-1-yl) prop-2-en-1-one], the IC50 against FGFR2 V564F was 5 to 50 nM; at FGFR3 V555M, 50 to 500 nM.
`C=CC(=O)N1CC[C@H](n2cc(C#Cc3ccc4oc(C(F)(F)F)nc4c3)c3c(N)ncnc32)C1` [Example 76, (S)-1-(3-(4-amino-5-((2-(trifluoromethyl)benzo[d]oxazol-5-yl)ethynyl)-7H-pyrrolo[2,3-d]pyrimidin-7-yl)pyrrolidin-1-yl)prop-2-en-1-one] registered an IC50 on FGFR3 V555M of 50 to 500 nM.
